Measurements as given in US20230142542A1, “USE OF SUBSTITUTED 1,2,4-OXADIAZOLES FOR COMBATING PHYTOPATHOGENIC FUNGI” (BASF SE, priority 2020, published 2023).

melting point: 119 to 121 °C
Structure (SMILES): O=C(O)C(F)(F)c1ccc(-c2noc(C(F)(F)F)n2)cc1 [I-2, 2,2-difluoro-2-[4-[5-(trifluoromethyl)-1,2,4-oxadiazol-3-yl]phenyl]acetic acid]
